Measurements reported in PMC4780864, “Family-wide Structural Analysis of Human Numb-Associated Protein Kinases” (Structure(London, England:1993), 2016).

Key:
Experiment in all cases: biochemical
[1] = biological target: T1, BIKE (Homo sapiens, UniProt Q9NSY1); parameters: Thermal shift assay (DSF, SYPRO Orange), 2 uM kinase domain, mean delta Tm of triplicates versus DMSO; settings: read-out: BIKE
T1 construct: gene BMP2K; catalytic domain-containing construct
Protocol: (§1) All measurements were performed in triplicate and mean values were reported for all compounds (Table S1). […] However, NAKs are often omitted from selectivity panels, including commercial screens.

[2] = biological target: T2, GAK (Homo sapiens, UniProt O14976); parameters: Thermal shift assay (DSF, SYPRO Orange), 2 uM kinase domain, mean delta Tm of triplicates versus DMSO; settings: for ΔTm at 12.5 µM: read-out: GAK
T2 construct: catalytic domain-containing construct
T2 sequence (O14976 1-1311): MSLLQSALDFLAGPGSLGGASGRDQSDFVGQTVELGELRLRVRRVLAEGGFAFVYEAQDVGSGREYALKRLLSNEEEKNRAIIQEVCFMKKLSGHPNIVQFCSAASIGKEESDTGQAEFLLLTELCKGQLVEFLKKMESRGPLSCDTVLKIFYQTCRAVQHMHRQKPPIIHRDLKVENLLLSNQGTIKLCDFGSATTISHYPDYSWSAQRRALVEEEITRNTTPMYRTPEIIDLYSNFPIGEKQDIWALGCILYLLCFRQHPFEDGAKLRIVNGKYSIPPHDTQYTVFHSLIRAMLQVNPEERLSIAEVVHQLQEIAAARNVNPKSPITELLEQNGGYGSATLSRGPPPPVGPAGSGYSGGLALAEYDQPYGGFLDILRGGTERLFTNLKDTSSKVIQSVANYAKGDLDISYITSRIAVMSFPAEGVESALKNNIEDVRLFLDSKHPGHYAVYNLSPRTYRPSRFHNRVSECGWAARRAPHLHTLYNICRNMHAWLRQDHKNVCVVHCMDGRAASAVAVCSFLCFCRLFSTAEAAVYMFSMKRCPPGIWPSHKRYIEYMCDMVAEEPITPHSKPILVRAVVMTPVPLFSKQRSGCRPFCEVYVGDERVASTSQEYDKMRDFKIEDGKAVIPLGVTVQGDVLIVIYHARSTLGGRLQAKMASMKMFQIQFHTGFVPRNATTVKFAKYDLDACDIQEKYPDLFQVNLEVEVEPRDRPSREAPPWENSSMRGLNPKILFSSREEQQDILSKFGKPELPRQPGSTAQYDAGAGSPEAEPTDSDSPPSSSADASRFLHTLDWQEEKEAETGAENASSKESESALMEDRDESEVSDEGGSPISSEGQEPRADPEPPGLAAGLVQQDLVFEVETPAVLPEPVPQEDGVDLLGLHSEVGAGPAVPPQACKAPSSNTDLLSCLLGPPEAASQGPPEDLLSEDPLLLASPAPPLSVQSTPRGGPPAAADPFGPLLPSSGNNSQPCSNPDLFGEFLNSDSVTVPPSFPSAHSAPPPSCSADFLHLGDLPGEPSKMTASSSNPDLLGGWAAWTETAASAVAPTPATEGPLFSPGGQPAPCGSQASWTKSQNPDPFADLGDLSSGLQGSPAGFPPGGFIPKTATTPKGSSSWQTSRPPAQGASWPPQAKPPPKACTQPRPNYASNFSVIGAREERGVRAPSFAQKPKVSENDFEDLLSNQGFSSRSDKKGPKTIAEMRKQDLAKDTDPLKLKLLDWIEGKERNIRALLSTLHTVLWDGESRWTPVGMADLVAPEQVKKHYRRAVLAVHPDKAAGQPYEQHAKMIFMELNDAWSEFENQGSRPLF
Protocol: as §1

[3] = biological target: T3, MPSK1 (Homo sapiens, UniProt O75716); parameters: Thermal shift assay (DSF, SYPRO Orange), 2 uM kinase domain, mean delta Tm of triplicates versus DMSO; settings: read-out: MPSK1
T3 construct: gene STK16; catalytic domain-containing construct
T3 sequence (O75716 whole entry, the tested form may be a part): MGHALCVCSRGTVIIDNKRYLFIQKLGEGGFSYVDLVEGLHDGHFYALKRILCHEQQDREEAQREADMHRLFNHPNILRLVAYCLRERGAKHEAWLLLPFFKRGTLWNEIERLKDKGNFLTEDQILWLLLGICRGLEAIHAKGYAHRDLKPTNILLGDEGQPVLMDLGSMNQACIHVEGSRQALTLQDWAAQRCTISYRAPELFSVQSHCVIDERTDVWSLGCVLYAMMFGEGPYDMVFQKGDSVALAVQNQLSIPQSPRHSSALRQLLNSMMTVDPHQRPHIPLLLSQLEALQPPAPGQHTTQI
Protocol: as §1

[4] = biological target: AAK1 (Homo sapiens, UniProt Q2M2I8); parameters: kinase domain; Thermal shift assay (DSF, SYPRO Orange), 2 uM kinase domain, mean delta Tm of triplicates versus DMSO; settings: read-out: AAK1
Sequence of AAK1 (Q2M2I8 27-365 limits assumed): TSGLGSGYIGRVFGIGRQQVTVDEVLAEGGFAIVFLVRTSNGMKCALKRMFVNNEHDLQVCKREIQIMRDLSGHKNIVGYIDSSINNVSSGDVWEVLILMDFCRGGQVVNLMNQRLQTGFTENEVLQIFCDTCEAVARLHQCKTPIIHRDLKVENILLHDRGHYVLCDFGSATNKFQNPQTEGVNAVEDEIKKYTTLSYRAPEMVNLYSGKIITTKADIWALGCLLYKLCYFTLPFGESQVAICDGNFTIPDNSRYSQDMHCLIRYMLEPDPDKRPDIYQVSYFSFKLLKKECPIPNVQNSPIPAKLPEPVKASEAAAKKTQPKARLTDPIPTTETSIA
Protocol: as §1

T1 sequence (Q9NSY1 whole entry, the tested form may be a part): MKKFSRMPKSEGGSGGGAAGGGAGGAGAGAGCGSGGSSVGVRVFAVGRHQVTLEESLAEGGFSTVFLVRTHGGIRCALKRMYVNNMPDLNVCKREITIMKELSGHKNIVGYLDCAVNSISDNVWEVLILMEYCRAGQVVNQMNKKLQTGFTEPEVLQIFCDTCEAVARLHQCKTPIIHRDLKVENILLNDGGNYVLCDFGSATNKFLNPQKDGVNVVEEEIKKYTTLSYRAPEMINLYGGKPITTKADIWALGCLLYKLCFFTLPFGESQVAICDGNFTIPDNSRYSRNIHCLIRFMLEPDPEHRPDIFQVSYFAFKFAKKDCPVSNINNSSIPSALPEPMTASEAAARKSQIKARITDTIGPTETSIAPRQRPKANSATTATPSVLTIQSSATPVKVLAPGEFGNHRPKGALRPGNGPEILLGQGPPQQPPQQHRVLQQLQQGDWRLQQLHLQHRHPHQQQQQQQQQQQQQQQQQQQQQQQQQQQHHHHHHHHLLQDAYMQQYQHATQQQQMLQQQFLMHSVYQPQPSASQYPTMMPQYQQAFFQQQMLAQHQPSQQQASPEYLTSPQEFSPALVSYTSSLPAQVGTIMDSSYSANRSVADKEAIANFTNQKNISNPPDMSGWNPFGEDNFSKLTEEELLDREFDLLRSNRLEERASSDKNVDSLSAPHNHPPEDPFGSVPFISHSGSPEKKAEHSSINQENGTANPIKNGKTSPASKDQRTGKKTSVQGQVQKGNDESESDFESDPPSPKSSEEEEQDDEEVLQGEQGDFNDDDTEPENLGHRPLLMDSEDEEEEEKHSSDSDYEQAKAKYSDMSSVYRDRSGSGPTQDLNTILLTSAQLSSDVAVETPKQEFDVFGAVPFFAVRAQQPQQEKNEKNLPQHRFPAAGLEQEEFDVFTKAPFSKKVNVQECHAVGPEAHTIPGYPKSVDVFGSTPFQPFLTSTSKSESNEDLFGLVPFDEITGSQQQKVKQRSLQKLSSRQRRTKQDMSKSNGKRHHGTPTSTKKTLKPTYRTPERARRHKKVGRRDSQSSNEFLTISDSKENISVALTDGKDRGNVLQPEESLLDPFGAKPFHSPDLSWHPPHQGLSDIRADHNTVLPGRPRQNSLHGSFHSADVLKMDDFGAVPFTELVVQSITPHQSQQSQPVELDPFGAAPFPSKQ

| SMILES | ΔTm at 12.5 µM [1] [°C] | ΔTm at 12.5 µM [2] [°C] | ΔTm at 12.5 µM [3] [°C] | ΔTm at 12.5 µM [4] [°C] | GAK ([2]; 12.5 µM) [°C] |
| --- | --- | --- | --- | --- | --- |
| COc1cc2c(Oc3ccc4[nH]c(C)cc4c3F)ncnc2cc1OCCCN1CCCC1 [Cediranib] | 1.58 | 0.667 | 1.03 | 0.543 | – |
| CC1(COc2ccc3c(c2)ncn3-c2ccc3cccc(N4CCC(N)CC4)c3n2)COC1 [Crenolanib] | 12 | 3.73 | 4.1 | 4.66 | – |
| C[C@@H](Oc1cc(-c2cnn(C3CCNCC3)c2)cnc1N)c1c(Cl)ccc(F)c1Cl [Crizotinib] | 7.44 | -0.44 | 1.95 | 3.01 | – |
| CC(C)(C)c1nc(-c2cccc(NS(=O)(=O)c3c(F)cccc3F)c2F)c(-c2ccnc(N)n2)s1 [Dabrafenib] | 2.95 | 9.06 | 4.06 | 2.23 | – |
| COc1cc2ncnc(Nc3ccc(F)c(Cl)c3)c2cc1NC(=O)/C=C/CN1CCCCC1 [Dacomitinib] | 5.85 | 7.28 | 0.97 | 3.8 | – |
| Cn1c(=O)n(-c2ccc(C(C)(C)C#N)cc2)c2c3cc(-c4cnc5ccccc5c4)ccc3ncc21 [Dactolisib] | 0.873 | -0.05 | 1.49 | 0.747 | – |
| CO[C@@H](C(=O)N1Cc2[nH]nc(NC(=O)c3ccc(N4CCN(C)CC4)cc3)c2C1)c1ccccc1 [Danusertib] | 1.68 | 0.59 | 2.36 | 1.74 | – |
| Cc1nc(Nc2ncc(C(=O)Nc3c(C)cccc3Cl)s2)cc(N2CCN(CCO)CC2)n1 [Dasatinib] | -0.673 | – | 0.0333 | 0.363 | 0.14 |
| CCc1cnn2c(NCc3ccc[n+]([O-])c3)cc(N3CCCC[C@H]3CCO)nc12 [Dinaciclib] | 0.5 | -1.13 | 1 | 0.23 | – |
| Cc1ccc(-n2nc(C(C)(C)C)cc2NC(=O)Nc2ccc(OCCN3CCOCC3)c3ccccc23)cc1 [Doramapimod] | 0.16 | -0.607 | 0.217 | -0.103 | – |
| CN1CCN(c2ccc3nc(-c4c(N)c5c(F)cccc5[nH]c4=O)[nH]c3c2)CC1 [Dovitinib] | 0.12 | -0.0367 | 0.593 | 0.263 | – |
| CN1CCC(COc2cnc(-c3cccc(Cn4nc(-c5cccc(C#N)c5)ccc4=O)c3)nc2)CC1 [EMD1214063] | 0.493 | -0.86 | 0.74 | 0.79 | – |
| Cn1cc(C2=C(c3cn(C4CCN(Cc5ccccn5)CC4)c4ccccc34)C(=O)NC2=O)c2ccccc21 [Enzastaurin] | 1.79 | -0.347 | 1.94 | 0.7 | – |
| C#Cc1cccc(Nc2ncnc3cc(OCCOC)c(OCCOC)cc23)c1 [Erlotinib] | 5.66 | 3.74 | 0.883 | 2.7 | – |
| O=S(=O)(c1cccc2cnccc12)N1CCCNCC1 [Fasudil] | 7 | -0.0367 | 0.903 | 3.27 | – |
| Cc1cnc(Nc2ccc(OCCN3CCCC3)cc2)nc1Nc1cccc(S(=O)(=O)NC(C)(C)C)c1 [Fedratinib] | 14 | 8.95 | 12.4 | 10.6 | – |
| COc1cc2c(Oc3ccc(NC(=O)C4(C(=O)Nc5ccc(F)cc5)CC4)cc3F)ccnc2cc1OCCCN1CCOCC1 [Foretinib] | 1.32 | 2.36 | 1.87 | 1.13 | – |

| SMILES | ΔTm at 12.5 µM [1] [°C] | ΔTm at 12.5 µM [2] [°C] | ΔTm at 12.5 µM [3] [°C] | ΔTm at 12.5 µM [4] [°C] | GAK ([2]; 12.5 µM) [°C] |
| --- | --- | --- | --- | --- | --- |
| CCn1c(-c2nonc2N)nc2cnc(Oc3cccc(NC(=O)c4ccc(OCCN5CCOCC5)cc4)c3)cc21 [GSK269962] | 6.73 | 0.157 | 2.88 | 7.43 | – |
| O=C(O)c1ccc(-c2c[nH]c3ncc(-c4ccccc4)cc23)cc1C1CCCC1 [GSK650394] | 13 | 7.69 | 8.84 | 8.29 | – |
| CNC(=O)c1c(F)cccc1Nc1nc(Nc2cc3c(ccn3C(=O)CN(C)C)cc2OC)nc2[nH]ccc12 [GSK1838705A] | 0.543 | 0.74 | 1.27 | 0.143 | – |
| CCc1cc(Nc2nccc(-c3c(-c4ccc(OC)c(C(=O)Nc5c(F)cccc5F)c4)nc4ccccn34)n2)c(OC)cc1N1CCC(N2CCN(S(C)(=O)=O)CC2)CC1 [GSK1904529A] | 0.13 | 0.227 | -0.0133 | -0.16 | – |
| COc1ncc(-c2ccc3nccc(-c4ccnnc4)c3c2)cc1NS(=O)(=O)c1ccc(F)cc1F [GSK2126458] | 5.45 | 3.33 | 6.45 | 4.05 | – |
| CNc1nc(-c2ccc3c(N)n[nH]c3c2)cc(N2C[C@@H](C(=O)NC3CCCCC3)CC[C@H]2C)n1 [GSK2334470] | 5.35 | 1.69 | 0.883 | 4.98 | – |
| Cc1c(Cn2c(C)nc3c(C(=O)O)cc(N4CCOCC4)cc32)cccc1C(F)(F)F [GSK2636771] | 0.39 | -0.483 | 0.763 | 0.317 | – |
| Cc1cccc(-c2nn3c(c2-c2ccnc4ccc(C(N)=O)cc24)CCC3)n1 [Galunisertib] | 0.583 | 3.39 | 0.97 | 0.47 | – |
| Cc1cc(Nc2cc(CN3CCOCC3)c3nc(C)c(Cc4ccc(Cl)cc4F)n3n2)n[nH]1 [Gandotinib] | 10.2 | 0.333 | 9.07 | 6.86 | – |
| COc1cc2ncnc(Nc3ccc(F)c(Cl)c3)c2cc1OCCCN1CCOCC1 [Gefitinib] | 2.84 | 6.66 | 0.263 | 1.69 | – |
| CC(C)n1nc(-c2ccc3oc(N)nc3c2)c2c(N)ncnc21 [INK128] | 0.41 | 0.577 | 1.64 | 0.0667 | – |
| C[C@H](Nc1ncnc2nc[nH]c12)c1cc2cccc(Cl)c2c(=O)n1-c1ccccc1 [IPI-145] | 0.24 | -0.497 | 0.847 | 0.21 | – |
| C=CC(=O)N1CCC[C@@H](n2nc(-c3ccc(Oc4ccccc4)cc3)c3c(N)ncnc32)C1 [Ibrutinib] | 0.397 | -0.293 | 1.76 | 0.0167 | – |
| C#Cc1cccc(Nc2ncnc3cc4c(cc23)OCCOCCOCCO4)c1 [Icotinib] | 4.47 | 3.33 | 0.81 | 2.56 | – |
| CC[C@H](Nc1ncnc2[nH]cnc12)c1nc2cccc(F)c2c(=O)n1-c1ccccc1 [Idelalisib] | 0.527 | 1.01 | 1.52 | 0.29 | – |
| CC(C)NC[C@@H](C(=O)N1CCN(c2ncnc3c2[C@H](C)C[C@H]3O)CC1)c1ccc(Cl)cc1 [Ipatasertib] | 0.34 | -0.727 | 0.84 | 0.3 | – |
